# According to patent publication US11247970B2, “Selective inhibition of gluconeogenic activity” (Dana-Farber Cancer Institute, Inc., priority 2017, dated 2022):
# Columns and labels:
# [1] = system: DIO mice and Lep^ob/ob mice; test: Glucose tolerance test (GTT); format: in vivo
# Protocol: (§1) All mice were purchased from Jackson laboratories and housed under a 12 h light/12 h dark cycle at 22° C. Before handling, mice were allowed to acclimate for at least 1 week in our animal facility. For in vivo studies with DIO mice, males 6-8 weeks old were fed HFD for the indicated time. For drug administration, SR-18292 was re-suspended in a 10% DMSO/10% Tween80/80% PBS solution at a final concentration of 6-12 mg/ml. Metformin was re-suspended in the same solution at a 20 mg/ml concentration. SR-18292 was injected via I.P. for 3 days between 4-5 pm and food was removed on day 3 at 5 pm. […] Metformin was administered via oral gavage. […] Insulin tolerance test was performed following the same dosing protocol, but mice were fasted for 4 hours after the forth injection before performing the test. Insulin was injected via I.P. (0.5 U/Kg) and blood glucose was measured every 20 minutes. Glycemia was measured by tail bleed using a glucometer (OneTouch). For all experiments, age- and body weight-matched animals were used. For protein, RNA extracts and biochemistry studies, livers were removed following each experiment and snap frozen in liquid nitrogen. For information on number of animals in each experiment please refer to FIGS. 4, 5 and S5 legends. All studies were performed according to protocols approved by Beth Israel Deaconess Medical Center's Animal Care and Use Committee.
# [2] = system: HFD fed mice; test: Insulin tolerance test (ITT); format: in vivo; settings: HFD 3 weeks
# Protocol: as §1
# [3] = system: interaction of GCN5 with PGC-1α; test: Co-immunoprecipitation of PGC-1α with GCN5 in U-2 OS cells; format: cell-based; settings: endogenous and ectopically expressed GCN5
# Protocol: For PGC-1α acetylation detection in hepatocytes cells were infected with Ad-PGC-1α and Ad-GCN5. Cells were collected in RIPA buffer (containing protease inhibitor cocktail, 5 mM NaF, 5 mM β-glycerophosphate, 10 mM nicotinamide, 1 mM DTT and 1 μM trichostatin A). FLAG-HA-PGC-1α was immunoprecipitated overnight at 4° C. with FLAG beads (Sigma A2220). For GCN5 interaction with PGC-1α, U-2 OS cells were infected with Ad-PGC-1α. Nuclear extracts were obtained by lysing cell in Buffer A (10 mM HEPES-KOH (pH 7.9), 10 mM KCl, 1.5 mM MgCl2, 0.5 mM DTT, 0.25% IGEPAL (v/v), 5 mM NaF, 5 mM β-glycerophosphate, 5 mM sodium butyrate and 10 mM nicotinamide), supplemented with Protease Inhibitor Cocktail. Once cytoplasmic fractions were separated, nuclear pellets were lysed in Buffer B (20 mM HEPES-KOH (pH 7.9), 125 mM NaCl, 1 mM EDTA, 1 mM DTT, 1% IGEPAL (v/v), 10% glycerol (v/v), 5 mM NaF, 5 mM β-glycerophosphate, 5 mM sodium butyrate and 10 mM nicotinamide), supplemented with Protease Inhibitor Cocktail. FLAG-HA-PGC-1α was immunoprecipitated with FLAG beads overnight at 4° C. All beads were washed at last 3 times in lysis buffer before eluting in sample loading buffer.
# [4] = system: HNF4α; test: Transcriptional luciferase reporter assay (Pck1 promoter fragment with HNF4α site) in U-2 OS cells; format: cell-based; settings: 24 h
# Protocol: U-2 OS cells were transfected with a fixed amount of DNA. After 6 h medium was changed and compound treatment started. The following morning medium was changed again and fresh compound was added for additional 3 h after which cells were collected (24 h post transfection) with 1× Passive Lysis Buffer (Promega). Firefly luciferase reporter was determined by addition of Luciferase Assay Substrate (Dual-Luciferase Reporter Assay System, Promega) and quantification of luminescence on a FLUOstar Omega plate reader (BMG Labtech). CMV-driven Renilla luciferase vector was cotransfected as an internal control. Data are presented as firefly luciferase reporter values normalized to Renilla values and are representative of at least two independent experiments.
# The GCN5 acetyl transferase complex decreases PGC-1α gluconeogenic transcriptional activation by interacting with PGC-1α. This is achieved at least in part by reducing the ability of PGC-1α to co-activate the nuclear hormone receptor HNF4α. Co-activation of HNF4α by PGC-1α is required to promote transcription of the gluconeogenic genes Pck1 and G6pc. To test whether SR-18292 reduces the transcriptional activity of HNF4α that is induced by PGC-1α, a luciferase reporter construct driven by a fragment of the Pck1 promoter containing an HNF4α binding site was used. […]
smiles,measurement,setting,value
"Cc1ccc(CN(CC(O)COc2cccc3[nH]ccc23)C(C)(C)C)cc1 (stereo not drawn) [SR-18292, 1-((1H-indol-4-yl)oxy)-3-(tert-butyl(4-methylbenzyl)amino)propan-2-ol]",glucose tolerance,[1]; DIO mice,significantly enhanced glucose tolerance
same,glucose tolerance,[1]; Lep^ob/ob mice,significantly enhanced glucose tolerance
same,insulin levels after GTT,"[1]; mouse, in vivo",lower
same,response to insulin,[2],enhanced
same,interaction of GCN5 with PGC-1α,[3],increased
same,transcriptional activity of HNF4α induced by PGC-1α,[4],significantly reduced
